Experimental data from patent US10660934B2, “Neuroprotective peptide” (SENJU PHARMACEUTICAL CO., LTD., priority 2016, dated 2020).
Each block holds one molecule with its values, some of them ahead of it. Where no end group is shown, it is not given here.

Key:
[1] = tested on: rat retinal ganglion cells (RGC); test: Hypoxia-induced cell death assay in rat retinal ganglion cells (Calcein-AM/Ethidium homodimer); type: cell-based; settings: for Rate of cell-death suppression (%): 24 hours hypoxia
Method: Retinal ganglion cells were isolated by a magnetic activated cell sorting method (MACS). Retinas were harvested from neonatal rats (Slc: Sprague-Dawley, 7-day old) and the tissue was dissociated using a Neural Tissue Dissociation Kit (Miltenyi Biotec, 130-094-802). Then, using a Retinal Ganglion Cell Isolation Kit (Miltenyi Biotec, 130-096-209), the endothelial cells and microglia were removed, and a positive selection for CD90.1^+ RGC was carried out by means of CD90.1MicroBeads. The test was carried out with the approval of the Animal Test Ethics Committee based on the Act on Welfare and Management of Animals (Act number 105 of Oct. 1, 1973, last revision: Act number 38 of Jun. 12, 2013), etc. 2. Cell Culture
After suspending the isolated RGC in a neurobasal medium (Gibco Corporation, 12348-017) containing a B27 supplement (Invitrogen, 0080085-SA), 1 mM of L-glutamine (Gibco, 25030), 50 ng/ml of BDNF (Peprotech, 25-02), 50 ng/ml of CNTF (Peprotech, 450-50) and 5 μm of Forskolin. (Sigma, F6886), they were seeded on a 96-well plate (Corning, 354596), ‘which’ was coated with poly-D-lysine/laminin, at a density of 5×10^3 cells/100 μl/well, and incubated at 37° C. and 5% CO2 for three days.
After having replaced the media with neurobasal media comprising a B27 supplement, 1 mM of L-glutamine […] and each peptide, a hypoxia state (O2 concentration of 0.1% or less) was induced by putting the plate in an Anaero Pack rectangular jar with Anaero Pack Kenki 5% (Mitsubishi Gas Chemical Company, Inc., A-07) with hermetically sealing, and incubating at 37° C. After incubating for 24 hours under hypoxia condition, Calcein-AM and Ethidium homodimer (Invitrogen, L3224) were added to the media. As a result of staining the cells, it was possible to distinguish between the viable cells and the dead cells. The number of viable cells and dead cells were measured using an Image Pro plus, and the rate of viability was given as “the proportion of the viable cell count relative to the total cell count.” 4. Test Results
The isolation and incubation of RGC were performed by the same methods as for Test Example 3-1, and 2.
Commercially available PRP4 (Abnova, H0011272-Q01) having the sequence of SEQ ID NO: 2, was used for Peptide 5. The evaluation of Peptide 5 was carried out by the same evaluation method as used for Test Example 3-3.

[2] = Stability in a vitreous humor solution; type: in vitro ADME, rabbit
Method: (Two) rabbits were euthanized by intravenous administration of 5 ml of a pentobarbital sodium solution, and then their eyeballs were removed. An incision was made in the equatorial region of each eyeball and the vitreous humor-solution was harvested from each eyeball using a syringe (18G injection needle) at the site of incision. The mixed vitreous humor solution was filtered with a cell strainer (40 μm) and the filtrate was used as the vitreous humor solution for the stability tests. 600 μl of the vitreous humor solution was mixed with 1.2 μl of a Primocin at a concentration of 50 mg/ml and the resultant solution was used as sample solution. 270 μl of the sample solution and […] in a 30 μl aqueous solution were mixed and the resultant mixture was used as the test sample. The test sample was incubated at 37° C. […] The analysis samples were stored frozen at −20° C. until it was time to take readings using them. […] Then, the concentration of Peptide 1 in each sample was analyzed using liquid chromatography. The concentrations were calculated from the area values obtained using the external standard method. […]
The residual rate was calculated using the following formula: Residual rate=(the concentration of peptide after 7 days' incubation/the concentration of peptide in the test samples immediately after they were prepared)×100 [Formula 1]

SH-SY5Y cells = test: Hypoxia-induced cell death assay in human neuroblastoma SH-SY5Y cells (LDH); type: cell-based; settings: 100 nM, 24 hours hypoxia (O2 0.1% or less), glucose-free DMEM, mean ± standard error (n = 3)
Method: SH-SY5Y cells (ATCC) were sustainably cultured in a DMEM/F12 medium (Invitrogen, 11330-032) supplemented with a 10% serum (Invitrogen, 10062-147) under the condition of 37° C. and 5% CO2.
The cells were seeded on a 96-well plate (Iwaki, 3860-096) at a density of 2×10^4 cells/100 μl/well. The following day the medium was replaced with a DMEM/F12 medium comprising a 1% serum and 10 μM of a retinoic acid (Wako, 302-79-4) and differentiated by incubation for 2 days. After replacing the medium with a glucose-free DMEM medium supplemented with 100 nM of Peptide 1, a hypoxia state (O2 concentration of 0.1% or less) was induced by putting the plate in an Anaero Pack rectangular jar with Anaero Pack Kenki 5% (Mitsubishi Gas Chemical Company, Inc., A-07) with hermetically sealing, and culturing at 37° C. Alter culturing for 24 hours in the hypoxia state, the cell-death inhibiting rate by the peptide was calculated by measuring the amount of LDH in the cells and the medium, using an LDH cytotoxicity detection kit (Takara, MK401). Moreover, 100 nM of an IGF-1 was used as a positive control in the experiment IGF-1 has a protective effect against nerve cell death (Mol. Cell Neurosci, 2011, 47 (3), 181-190). 3. Test Results

[3] = 100 nM, mean ± standard error (n = 14-19)

Molecule: QQRPP (Peptide of PRP4) [Peptide 4]
Rate of cell-death suppression (%) [1, 3]: 31.1 ± 7.8 %

Molecule: HPPPPPFQNQQ (peptide of PRP4) [Peptide 2]
Rate of cell-death suppression (%) [1, 3]: 26.4 ± 4.8 %

stability in a vitreous humor solution (in words) ([2]; 7 days at 37° C.): stable in a vitreous humor solution
remaining at 168 h ([2]; vitreous humor solution (filtered, from rabbit eyeballs), after 7 days' incubation at 37° C. in rabbit vitreous humor solution, read-out: Residual ratio (%)): 98.4%
Molecule: HPPPPPFQNQQRPP [Peptide 1, HPPPPPFQNQQRPP]

Molecule: HPPPPPFQ (peptide of PRP4) [Peptide 3]
Rate of cell-death suppression (%) [1, 3]: 27.2 ± 6.6 %

Molecule: IGF-1
Cell lethality (%) (SH-SY5Y cells): 88.1 ± 8.3 %

B1: Peptide 5: Commercially available PRP4 (Abnova, H0011272-Q01) having the sequence of SEQ ID NO: 2 (protein)
chain: QSTDNDVNYEDFTFTIPDVEDSSQRPDQGPQRPPPEGLLPRPPGDSGNQDDGPQQRPPKPGGHHRHPPPPPFQNQQRPPQRGHRQLSLPRFPSVSLQEAS
modifications: commercial recombinant protein, possible tag; Peptide of PRP4
Rate of cell-death suppression (%) ([1]; 10 nM, mean ± standard error (n = 12 to 18)): 66.2 ± 14.4 %
suppression of cell death from hypoxia (in words) ([1]; rat RGC, Test Example 4, 10 nM): significantly suppressed the cell death from hypoxia
